Measured values from the supplement of paper PMC10307832.

Columns and labels:
Test in all cases: relative viability (nuclei count vs DMSO), 5 days (fraction); higher = more cells survive
[1] = compound: C=CCn1c(=O)c2cnc(Nc3ccc(N4CCN(C)CC4)cc3)nc2n1-c1cccc(C(C)(C)O)n1 [Adavosertib] + COc1cc2c(Oc3ccc(NC(=O)C4(C(=O)Nc5ccc(F)cc5)CC4)cc3F)ccnc2cc1OCCCN1CCOCC1 [Foretinib] (partner 0.25 µM)
In short: (§1)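 Lung cancer cell lines in 1536-well plates were dosed by pin tool the day after seeding, either with one drug alone or with a fixed anchor-drug dose plus five library-drug doses (not always all listed) in √10 steps. After 5 days, cells were fixed and their nuclei stained in one step (final 0.05% Triton X-100, 1% formaldehyde, 1 ug/ml Hoechst), then counted on 4× images. Relative viability is the nuclei count in treated wells divided by that in vehicle wells. Values are medians of duplicate plates.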

[2] = compound: COc1nc(N)nc2c1ncn2[C@@H]1O[C@H](CO)[C@@H](O)[C@@H]1O [Nelarabine] + Nc1nc2[nH]cc(CCc3ccc(C(=O)N[C@@H](CCC(=O)O)C(=O)O)cc3)c2c(=O)[nH]1 [Pemetrexed] (partner 0.2 µM)
In short: as §1

[3] = compound: COc1nc(N)nc2c1ncn2[C@@H]1O[C@H](CO)[C@@H](O)[C@@H]1O [Nelarabine] + COc1cccc2cc(-c3nc([C@H]4CC[C@H](C(=O)O)CC4)n4ncnc(N)c34)[nH]c12 [OSI-027] (partner 0.5 µM)
In short: as §1

[4] = compound: COc1nc(N)nc2c1ncn2[C@@H]1O[C@H](CO)[C@@H](O)[C@@H]1O [Nelarabine] + CS(=O)(=O)CCNCc1ccc(-c2ccc3ncnc(Nc4ccc(OCc5cccc(F)c5)c(Cl)c4)c3c2)o1 [Lapatinib] (partner 2 µM)
In short: as §1

| Cell Line | relative viability ([1]; first compound 0.01 µM) | relative viability ([1]; first compound 0.03162 µM) | relative viability ([1]; first compound 0.1 µM) | relative viability ([1]; first compound 0.3162 µM) | relative viability ([2]; first compound 0.01 µM) | relative viability ([2]; first compound 0.03162 µM) | relative viability ([2]; first compound 0.1 µM) | relative viability ([2]; first compound 0.3162 µM) | relative viability ([2]; first compound 1 µM) | relative viability ([3]; first compound 0.01 µM) | relative viability ([3]; first compound 0.03162 µM) | relative viability ([3]; first compound 0.1 µM) | relative viability ([3]; first compound 0.3162 µM) | relative viability ([3]; first compound 1 µM) | relative viability ([4]; first compound 0.01 µM) | relative viability ([4]; first compound 0.03162 µM) | relative viability ([4]; first compound 0.1 µM) | relative viability ([4]; first compound 0.3162 µM) | relative viability ([4]; first compound 1 µM) |
| --- | --- | --- | --- | --- | --- | --- | --- | --- | --- | --- | --- | --- | --- | --- | --- | --- | --- | --- | --- |
| NCI-H647 | 1.15 | 1.33 | 1.04 | 1.12 | 0.17 | 0.162 | 0.154 | 0.194 | 0.217 | 0.481 | 0.683 | 0.68 | 0.68 | 0.571 | 1.37 | 0.807 | 1.11 | 1.34 | 1.14 |
| NCI-H2347 | 0.829 | 0.926 | 0.697 | 0.989 | 0.423 | 0.425 | 0.427 | 0.447 | 0.397 | 0.505 | 0.431 | 0.409 | 0.389 | 0.369 | 0.977 | 0.904 | 0.94 | 0.954 | 0.992 |
| NCI-H1395 | 0.922 | 0.932 | 0.989 | 0.83 | 0.818 | 0.755 | 1.21 | 0.773 | 0.707 | 0.611 | 0.587 | 0.632 | 0.615 | 0.634 | 0.959 | 1.1 | 1.23 | 0.971 | 1.5 |
| NCI-H522 | – | – | – | – | 1.1 | 0.923 | 1.03 | 0.999 | 1.11 | 0.758 | 0.76 | 0.713 | 0.722 | 0.687 | – | – | – | – | – |
| NCI-H2087 | 1.22 | 1.11 | 1.37 | 1.06 | 0.782 | 0.67 | 0.723 | 0.7 | 0.717 | 0.568 | 0.639 | 0.489 | 0.676 | 0.517 | 1 | 1.02 | 1.09 | 1.07 | 1.32 |
| NCI-H1703 | 0.399 | 0.43 | 0.335 | 0.203 | – | – | – | – | – | – | – | – | – | – | 1.65 | 1.33 | 1.42 | 1.05 | 1.11 |
| NCI-H1792 | – | – | – | – | 1.09 | 0.658 | 1.58 | 0.937 | 0.824 | – | 0.773 | 0.75 | 0.904 | 1.13 | 0.913 | – | 1.45 | 1.03 | 0.967 |
| Calu-6 | 0.905 | 0.956 | 0.91 | 0.311 | – | – | – | – | – | – | – | – | – | – | 1.29 | 1.04 | 1.08 | 1.18 | 1.14 |
| IA-LM | 0.945 | 1.18 | 1.43 | 1.37 | – | – | – | – | – | – | – | – | – | – | 1.01 | 0.74 | 0.829 | 0.9 | 0.932 |
| A549 | 1.04 | 0.984 | 1.24 | 0.838 | – | – | – | – | – | – | – | – | – | – | 1.13 | 1.09 | 0.926 | 0.896 | 0.921 |
| NCI-H1648 | – | – | – | – | – | 0.805 | – | 0.885 | 0.75 | 0.237 | 0.282 | 0.264 | 0.256 | 0.281 | – | – | – | – | – |
| ABC-1 | 0.909 | 1.31 | 1.39 | 1.03 | – | – | – | – | – | 0.535 | 0.48 | 0.38 | 0.44 | 0.477 | 1.44 | 0.952 | 1.23 | 1.1 | 1.37 |
| SW 900 | – | 0.727 | 0.853 | 0.907 | 0.53 | 0.538 | 0.482 | 0.526 | 0.506 | 0.569 | 0.551 | 0.565 | 0.452 | 0.655 | – | – | – | – | – |
| NCI-H727 | 0.689 | 1.07 | 0.917 | 0.831 | – | – | – | – | – | 0.565 | 0.722 | 0.534 | 0.562 | 0.695 | 0.909 | 0.896 | 0.922 | 0.74 | 0.829 |
| NCI-H1623 | 0.863 | 0.863 | 0.854 | 0.933 | – | – | – | – | – | 0.436 | 0.374 | 0.392 | 0.379 | 0.391 | – | – | – | – | – |
| EBC-1 | 0.111 | 0.101 | 0.115 | 0.0875 | – | – | – | – | – | – | – | – | – | – | 0.177 | 0.205 | 0.188 | 0.215 | 0.197 |
| NCI-H2342 | 1.14 | 1.18 | 1.19 | 1.04 | 0.901 | 0.659 | 0.681 | 0.817 | 0.801 | 0.734 | 0.533 | 0.564 | 0.75 | 0.626 | – | – | – | – | – |
| ChaGo-K-1 | 0.856 | 0.951 | 0.941 | 1.02 | 0.242 | 0.249 | 0.261 | 0.258 | 0.252 | 0.676 | 0.444 | 0.663 | 0.758 | 0.589 | – | – | – | – | – |
| NCI-H441 | 1.04 | 0.964 | 1.09 | 0.916 | 0.249 | 0.277 | 0.27 | 0.238 | 0.282 | 0.535 | 0.497 | 0.592 | 0.782 | 0.647 | – | – | – | – | – |
| LCLC-103H | 0.922 | 0.794 | 0.871 | 0.517 | 0.467 | 0.447 | 0.464 | 0.446 | 0.478 | 0.499 | 0.322 | 0.459 | 0.464 | 0.486 | – | – | – | – | – |
| NCI-H1299 | 1.08 | 1.11 | 1.1 | 0.437 | – | – | – | – | – | – | – | – | – | – | 1 | 0.999 | 1.02 | 0.98 | 1 |
| HCC-44 | – | – | – | – | 0.642 | 0.662 | 0.646 | 0.69 | 0.633 | 0.568 | 0.484 | 0.607 | 0.518 | 0.52 | 1.08 | 1.07 | 1.14 | 1.03 | 1.02 |
